Measured values as given in US20050032912A1, “Anaesthetic compositions and method for their administration” (priority 2001, published 2005).
“Also recorded” adds a separate entry of the source.

Key:
Solubility in water = format: physicochemical
Procedure: Other anaesthetic agents are administered to the patient by means of injection. Although generally less desirable than inhaled agents for reasons of ease of administration and the maintenance of a controlled amount of the anaesthetic composition, these are used in an variety of applications. For example, propofol is a widely used anaesthetic administered to the patient by injection. The anaesthetic agents is propofol contained in an appropriate formulation. […] Propofol must be thoroughly distributed in any anaesthetic formulation, and generally brought in to solution, because the administration of propofol itself in to the patient's blood stream can cause severe problems.
Preparation of anaesthetic formulations of the invention is generally straightforward.
In addition, some poloxamers require increased temperatures in order to satisfactorily micellise in water. In general, concentrations of poloxamer of about 10% w/v are useful in the present invention, but concentrations of poloxamers, whether single or mixed, can be selected as appropriate and will generally be above 0.5% and below about 20%. More preferred concentrations are from 5% to 15%. Some poloxamers will begin to gel at higher concentrations, and any poloxamer concentration that gels at body temperature, especially when in association with propofol, should be avoided for injection purposes.

[1] = Solubilisation of propofol in aqueous poloxamer solution (micellar)
[2] = system: patients who have Parkinson's disease; conditions: cited from earlier work
[3] = cited from earlier work

Compound: CC(C)c1cccc(C(C)C)c1O [propofol]
- solubility in water (in words) (Solubility in water): virtually insoluble in water; also recorded: not readily soluble in water
- maximum concentration of propofol ([1]; 10% w/w poloxamer in water, poloxamer P237): about 3.2%
- propofol dissolved ([1]; poloxamer P407): 1.7%
- duration of tremor reduction ([2]; after propofol anaesthesia): up to three
- effect on tremors (in words) ([2]; after-effect of propofol anaesthesia): reduction in tremors
- half-life in the bloodstream ([3]; bloodstream, patient): nine
- concentration in the body ([3]; three days after propofol anaesthesia): less than 0.02 mg/kg bodyweight
